Values of other authors as cited in patent publication US7935365B2, “Glycerophospholipids for the improvement of cognitive functions” (Enzymotec, Ltd., priority 2003, dated 2011).
Read-outs that look alike come from different tables or passages of the source.

SMILES | Improvement of the ADHD index, previously reported (Alhambra et al. (1995)) | Improvement of the ADHD index, previously reported (Rugino and Copley (2001)) [SD]
COC(=O)C(c1ccccc1)C1CCCCN1 (racemic) [methylphenidate, DL-threo-Methylphenidate] | exceed 80% | 
NC(=O)C[S+]([O-])C(c1ccccc1)c1ccccc1 (centres unmarked) [modafinil] |  | > 2.5
